Reference: US8389523B2, “Substituted quinoxaline and an agrochemical composition thereof” (Kumiai Chemical Industry Co., Ltd., priority 2007, dated 2013)

Columns and labels:
Type in all cases: in vivo
Set-up in all cases: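 grade 0 to 5 of growth suppression where 5 is 90% or more and 0 below 10%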
[1] = tested on: Echinochloa crus-galli (L.) P. Beauv. var. crus-galli; assay: Herbicidal effects in upland field foliar treatment (Test Example 3); settings: criteria of Table 138; for herbicidal effects on Echinochloa crus-galli (L.) P. Beauv. var. crus-galli: 1000 g of the active ingredient per hectare, 14th day after the treatment, wettable powder; for herbicidal effect (index) on Echinochloa crus-galli (L.) P. Beauv. var. crus-galli: 1000 g active ingredient per hectare, 14th day after treatment
Experimental: (§1) Test Example 3 Test on Herbicidal Effects in Upland Field Foliar Treatment A 80-cm^2 plastic pot was filled with upland field soil. Seeds of Echinochloa crus-galli (L.) P. Beauv. var. crus-galli, Abutilon theophrasti medicus and Amaranthus viridis L. were sowed, and the plants were grown for two weeks in a greenhouse. A wettable powder formulation prepared according to Preparation Example 1 was diluted with water, and was sprayed with a small sprayer to perform foliar application over the entirety of plants from the upper side, in an amount equivalent to 1000 liters per hectare, such that 1000 g of the active ingredient per hectare was applied. Thereafter, the plants were grown in a greenhouse, and on the 14th day after the treatment, the herbicidal effects were investigated according to the criteria described in the Table 138 shown above.

[2] = tested on: Abutilon theophrasti medicus; assay: as above; settings: criteria of Table 138; for herbicidal effects on Abutilon theophrasti medicus: 1000 g of the active ingredient per hectare, 14th day after the treatment, wettable powder; for herbicidal effect (index) on Abutilon theophrasti medicus: 1000 g active ingredient per hectare, 14th day after treatment
Experimental: as §1

[3] = tested on: Amaranthus viridis L.; assay: as above; settings: criteria of Table 138; for herbicidal effects on Amaranthus viridis L.: 1000 g of the active ingredient per hectare, 14th day after the treatment, wettable powder; for herbicidal effect (index) on Amaranthus viridis L.: 1000 g active ingredient per hectare, 14th day after treatment
Experimental: as §1

[4] = tested on: Echinochloa oryzicola Vasing; assay: Herbicidal effects in paddy field soil treatment (Test Example 1); settings: paddy field soil treatment; 1000 g of the active ingredient per hectare; wettable powder added dropwise on water surface; 21st day after treatment
Experimental: (§2) Test for Herbicidal Effects in Paddy Field Soil Treatment
(§3) A 100-cm^2 plastic pot was filled with paddy field soil. After puddling and leveling, seeds of Echinochloa oryzicola Vasing, Monochoria vaginalis (Burm. f.) Presl var. plantaginea (Roxb.) Solms-Laub., and Scirpus juncoides Roxb. var. ohwianus. T. Koyama were sowed, and the soil was waterlogged to a water depth of 3 cm. On the next day, a wettable powder formulation prepared according to Preparation Example 1 was diluted with water, and was added dropwise on the water surface. The amount of application was an amount equivalent to 1000 g of the active ingredient per hectare. Thereafter, the plants were grown in a greenhouse, and on the 21st day after the treatment, the herbicidal effects were investigated according to the criteria described in Table 138.

[5] = tested on: Monochoria vaginalis (Burm. f.) Presl var. plantaginea (Roxb.) Solms-Laub.; assay: as above; settings: paddy field soil treatment; 1000 g of the active ingredient per hectare; wettable powder added dropwise on water surface; 21st day after treatment
Experimental: as §2, §3

[6] = tested on: Scirpus juncoides Roxb. var. ohwianus. T. Koyama; assay: as above; settings: paddy field soil treatment; 1000 g of the active ingredient per hectare; wettable powder added dropwise on water surface; 21st day after treatment
Experimental: as §2, §3

[7] = tested on: Abutilon theophrasti medicus; assay: Herbicidal effects in upland field soil treatment (Test Example 2); settings: 1000 g active ingredient per hectare, 21st day after treatment, criteria of Table 138
Experimental: (§4) Test Example 2 Test on Herbicidal Effects in Upland Field Soil Treatment A 80-cm^2 plastic pot was filled with upland field soil. Seeds of Abutilon theophrasti medicus and Amaranthus viridis L. were sowed, and soil was covered. A wettable powder formulation prepared according to Preparation Example 1 was diluted with water, and was uniformly sprayed on the soil surface with a small sprayer, in an amount equivalent to 1000 liters per hectare, such that 1000 g of the active ingredient per hectare was applied. Thereafter, the plants were grown in a greenhouse, and on the 21st day after the treatment, the herbicidal effects were investigated according to the criteria described in the Table 138 shown above.

[8] = tested on: Amaranthus viridis L.; assay: as above; settings: 1000 g active ingredient per hectare, 21st day after treatment, criteria of Table 138
Experimental: as §4

Structure (SMILES)	herbicidal effects on Echinochloa crus-galli (L.) P. Beauv. var. crus-galli [1]	herbicidal effects on Abutilon theophrasti medicus [2]	herbicidal effects on Amaranthus viridis L. [3]	Herbicidal effects index, Echinochloa oryzicola Vasing [4]	Herbicidal effects index, Monochoria vaginalis (Burm. f.) Presl var. plantaginea (Roxb.) Solms-Laub. [5]	Herbicidal effects index, Scirpus juncoides Roxb. var. ohwianus. T. Koyama [6]	herbicidal effect (index) on Echinochloa crus-galli (L.) P. Beauv. var. crus-galli [1]	herbicidal effect (index) on Abutilon theophrasti medicus [2]	herbicidal effect (index) on Amaranthus viridis L. [3]	herbicidal effect (index) on Abutilon theophrasti medicus [7]	herbicidal effect (index) on Amaranthus viridis L. [8]
COc1ccc(-n2c(=O)c(C(=O)C3=C(O)CCCC3=O)nc3cccc(Cl)c32)cc1 [II-197]	5	4	5	5	5	5	–	–	–	–	–
O=C1CCCC(O)=C1C(=O)c1nc2ccccc2n(C2CCS(=O)(=O)C2)c1=O (stereo not drawn) [I-137]	–	–	–	5	5	5	4	5	5	–	–
COc1ccc2nc(C(=O)C3=C(O)CCCC3=O)c(=O)n(-c3cc(F)c(OC)c(F)c3)c2c1 [II-255]	5	4	5	5	5	5	–	–	–	–	–
C#CCOc1ccc(-n2c(=O)c(C(=O)C3=C(O)CCCC3=O)nc3ccccc32)cc1 [II-84]	4	4	5	5	5	5	–	–	–	–	–
O=C1CCCC(O)=C1C(=O)c1nc2ccccc2n(C2CCSC2)c1=O (stereo not drawn) [I-136]	–	–	–	–	–	–	4	5	5	–	–
CSCn1c(=O)c(C(=O)C2=C(O)CCCC2=O)nc2cccnc21 [III-70]	–	–	–	4	5	5	–	–	–	5	5
COc1ccc(-n2c(=O)c(C(=O)C3=C(O)CCCC3=O)nc3c(Cl)cccc32)cn1 [I-379]	–	–	–	5	5	5	–	–	–	5	5
Cn1c(=O)c(C(=O)C2=C(O)CCCC2=O)nc2ccc(S(C)(=O)=O)cc21 [I-247]	–	–	–	–	–	–	4	5	5	–	–
COc1ccc(-n2c(=O)c(C(=O)C3=C(O)CCCC3=O)nc3c(F)cccc32)cn1 [I-279]	–	–	–	4	5	5	–	–	–	5	5
Cc1ccc(-n2c(=O)c(C(=O)C3=C(O)CCCC3=O)nc3ccccc32)cc1Cl [II-216]	–	–	–	5	5	5	–	–	–	4	5
CSc1ccc2nc(C(=O)C3=C(O)CCCC3=O)c(=O)n(C)c2c1 [I-243]	–	–	–	–	–	–	5	5	5	–	–
COc1ccc(-n2c(=O)c(C(=O)C3=C(O)CCCC3=O)nc3c(F)cc(F)cc32)cc1 [II-259]	–	–	–	4	5	5	–	–	–	5	5
Cc1ccc(-n2c(=O)c(C(=O)C3=C(O)CCCC3=O)nc3ccc(C)cc32)nc1 [I-368]	–	–	–	4	5	5	–	–	–	5	5
Cn1c(=O)c(C(=O)C2=C(O)CCCC2=O)nc2c(Cl)cccc21 [I-223]	–	–	–	4	5	5	–	–	–	5	5
O=C1CCCC(O)=C1C(=O)c1nc2cccc(Cl)c2n(-c2ccccc2)c1=O [II-193]	–	–	–	5	5	5	–	–	–	5	5
Cn1nc(C(F)(F)F)nc1-n1c(=O)c(C(=O)C2=C(O)CCCC2=O)nc2ccccc21 [I-165]	–	–	–	5	5	5	–	–	–	5	5
CC(C)c1cccc(-n2c(=O)c(C(=O)C3=C(O)CCCC3=O)nc3ccccc32)c1 [II-29]	–	–	–	5	5	5	–	–	–	4	5
COc1c(F)cc(-n2c(=O)c(C(=O)C3=C(O)CCCC3=O)nc3c(F)cccc32)cc1F [II-235]	–	–	–	4	5	5	–	–	–	4	5
O=C1CCCC(O)=C1C(=O)c1nc2ccccc2n(-c2ccc(Cl)nn2)c1=O [I-273]	–	–	–	5	5	5	–	–	–	5	5
CN(C)C(=O)Cn1c(=O)c(C(=O)C2=C(O)CCCC2=O)nc2ccccc21 [Compound I-100]	–	–	–	–	–	–	5	4	5	–	–
